Legend:
FAAH = settings: Kathuria 2003; Mor 2004; WO 2004/033422; cited from earlier work
[1] = target: T1, fatty acid amide hydrolase (FAAH) (Homo sapiens, UniProt O00519); assay: FAAH LC-MS/MS screening assay, IC50 determination (anandamide hydrolysis by human liver microsomes); type: biochemical; settings: inhibition of FAAH activity
T1 construct: 25 μL of human liver microsomes (31.3 μg); from tissue; host or cells: human liver microsomes
T1 sequence (O00519 1-579): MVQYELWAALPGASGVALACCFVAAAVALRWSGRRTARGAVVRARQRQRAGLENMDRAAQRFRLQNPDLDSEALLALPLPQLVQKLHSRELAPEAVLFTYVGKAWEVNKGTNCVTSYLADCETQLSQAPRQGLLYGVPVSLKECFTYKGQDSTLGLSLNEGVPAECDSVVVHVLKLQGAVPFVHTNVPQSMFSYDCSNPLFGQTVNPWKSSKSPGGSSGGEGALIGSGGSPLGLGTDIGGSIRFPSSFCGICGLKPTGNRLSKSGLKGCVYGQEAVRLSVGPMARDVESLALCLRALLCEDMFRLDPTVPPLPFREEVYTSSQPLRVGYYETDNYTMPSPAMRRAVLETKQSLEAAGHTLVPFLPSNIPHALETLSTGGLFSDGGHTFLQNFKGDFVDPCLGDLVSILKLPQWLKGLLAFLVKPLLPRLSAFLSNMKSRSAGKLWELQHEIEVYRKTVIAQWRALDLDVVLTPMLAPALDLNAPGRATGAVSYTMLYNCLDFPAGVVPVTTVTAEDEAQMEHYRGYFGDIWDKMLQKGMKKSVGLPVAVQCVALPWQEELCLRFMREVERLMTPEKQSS
Protocol: For determining IC50 values for candidate FAAH inhibitor compounds, the above method is used with an adjusted FAAH inhibitor concentration. In the IC50 assay, the FAAH inhibitor is added at a concentration range of approximately 3 μM to 0.03 nM. The final calculation of IC50 is determined by first transforming the concentrations by “X=log(X)” and then analyzing the data with a sigmoidal dose-response curve (no constraints) using GraphPad Prism version 4.00 for Windows (GraphPad Software, San Diego Calif. USA, www.graphpad.com).

[2] = Determination of pharmacokinetics in rats following oral administration (plasma and brain); type: in vivo, rat; settings: for AUC / Cmax: rat, plasma; for AUC / Cmax / Brain AUC / Brain Cmax: 10 mg/kg oral gavage, solution
Protocol: Potential FAAH inhibitors are formulated for oral (p.o.), intraperitoneal (i.p.) or intravenous (i.v.) delivery to rats. Formulated compounds are administered and the animals were sacrificed at pre-determined time points post dose. At sacrifice, blood samples are collected into EDTA plasma tubes and whole brains were snap frozen in liquid nitrogen. EDTA plasma was isolated from blood samples after centrifugation. Brain and plasma samples are stored at −80° C. prior to analysis. All samples (brain and plasma) are analyzed for the concentrations of test compound (FAAH inhibitor), metabolites of the test compound and endogenous fatty acid ethanolamide levels (including anandamide, oleoylethanolamide, and palmitoylethanolamide) by LC-MS/MS. Levels of these compounds are compared across time points to determine pharmacokinetic properties of the test compounds and partial pharmacological effects of inhibiting FAAH activity (including changes of fatty acid ethanolamide levels).
The pharmacokinetic properties of compounds provided herein were assessed in rats following oral administration as a solution. […] The solution of the test compound was administered to rats at a dose of 10 mg/kg via oral gavage.

Structure (SMILES) | Inhibition of FAAH activity (in words) (FAAH) | IC50 [1] | AUC [2] | Cmax [2] | Brain AUC [2] | Brain Cmax [2] | Crossing of the blood brain barrier ([2]; 10 mg/kg oral, conclusion from Table 2)
NC(=O)c1cccc(-c2cccc(OC(=O)NC3CCCCC3)c2)c1 | potent and selective inhibitors of FAAH activity |  |  |  |  |  | 
O=C(NCC1CCCCC1)Oc1cccc(C(=O)O)c1 [Compound 2, 3-(Cyclohexylmethylcarbamoyloxy)benzoic acid] |  | < 0.1 µM | 1700 ng·h/mL | 1250 ng/mL |  |  | 
O=C(NCC1CCCCC1)Oc1ccc(C(=O)O)cc1 [Compound 4, 4-(Cyclohexylmethylcarbamoyloxy)benzoic acid] |  | < 0.1 µM | 8840 ng·h/mL | 7720 ng/mL | 483 ng·h/g | 475 ng/g | does not substantially cross the blood brain barrier
O=C(O)Cc1cccc(OC(=O)NCC2CCCCC2)c1 [Compound 7] |  | < 0.1 µM |  |  |  |  | 
O=C(NCC1CCCCC1)Oc1cccc(-c2nnn[nH]2)c1 [Compound 11, 3-(1H-Tetrazol-5-yl)phenyl cyclohexylmethylcarbamate] |  | < 0.1 µM |  |  |  |  | 
NC(=O)c1cccc(-c2cccc(OC(=O)NC3CCCCC3)c2)c1 [KDS-4103, reference compound] |  |  | 6730 ng·h/mL | 3160 ng/mL | 9,737 ng * hr/g | 4,584 ng/g | 

Source: patent US20070155707A1 (Kadmus Pharmaceuticals, Inc., priority 2005, published 2007)
